Experimental data taken from patent publication US9573913B2, “Cathepsin cysteine protease inhibitors” (Merck Sharp & Dohme Corp., priority 2013, dated 2017).

Key:
[1] = target: T1, human cathepsin F (Homo sapiens, UniProt Q9UBX1); assay: Cathepsin F assay (hCat F); format: biochemical; conditions: Z-Phe-Arg-AMC substrate, pH 5.5, 15 min preincubation; read-out: hCat F (IP (nM))
T1 sequence (Q9UBX1 271-484): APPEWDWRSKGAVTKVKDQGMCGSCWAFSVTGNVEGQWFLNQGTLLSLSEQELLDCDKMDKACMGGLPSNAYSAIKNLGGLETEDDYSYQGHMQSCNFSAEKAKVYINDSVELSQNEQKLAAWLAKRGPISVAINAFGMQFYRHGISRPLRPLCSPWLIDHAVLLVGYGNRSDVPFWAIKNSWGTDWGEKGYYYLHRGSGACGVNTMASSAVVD
In short: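 AMC release from Z-Phe-Arg-AMC, added at 8 μM, was monitored fluorometrically (360/460 nm) for 20 min after 10 nM enzyme and compound had been preincubated 15 min at room temperature. Buffer: MES 50 mM pH 5.5, EDTA and DTT 2.5 mM each, 10% DMSO. Compound DMSO dilutions spanned 500–0.025 μM (3-fold). Dose-response fitting gave % inhibition.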

[2] = target: human cathepsin K (UniProt P43236); assay: Cathepsin K Assay (hrbCat K); format: biochemical; conditions: Z-Leu-Arg-AMC substrate, pH 5.5, 15 min preincubation; read-out: hrbCat K (IP (nM))
In short: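 Human cathepsin K (0.4 nM) was preincubated 15 min at room temperature with compound in 50 mM MES pH 5.5, 2.5 mM EDTA, 2.5 mM DTT and 10% DMSO. Inhibition was fitted to a dose-response model.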

IC50 [1]	IC50 [2]	Compound
1120 nM	3.6 nM	Cc1cc(C#N)ccc1-c1nc([C@@H]2CCCC[C@H]2C(=O)NC2(C#N)CC2)c(-c2ccc(N3CCS(=O)(=O)CC3)cc2)s1 [Example 95, (1R,2R)-2-(2-(4-cyano-2-methylphenyl)-5-(4-(1,1-dioxidothiomorpho-lino)phenyl)thiazol-4-yl)-N-(1-cyanocyclopropyl) cyclohexanecarbox-amide]
1920 nM	2.1 nM	N#CC1(NC(=O)[C@@H]2CCCC[C@H]2c2nc(-c3ccnc(C(F)(F)F)c3)sc2-c2ccc(N3CCS(=O)(=O)CC3)cc2)CC1 [Example 96, (1R,2R)-N-(1-cyanocyclopropyl)-2-(5-(4-(1,1-dioxidothiomorpho-lino)phenyl)-2-(2-(trifluoromethyl)pyridin-4-yl)thiazol-4-yl)cyclohexane-carboxamide]
3080 nM	2.8 nM	COc1cncc(F)c1-c1nc([C@@H]2CCCC[C@H]2C(=O)NC2(C#N)CC2)c(-c2ccc(N3CCS(=O)(=O)CC3)cc2)s1 [Example 97, (1R,2R)-N-(1-cyanocyclopropyl)-2-(5-(4-(1,1-dioxidothiomorpho-lino)phenyl)-2-(3-fluoro-5-methoxypyridin-4-yl)thiazol-4-yl)cyclohexane-carboxamide]
1600 nM	0.6 nM	N#CC1(NC(=O)[C@@H]2CCCC[C@H]2c2nc(-c3cnc(C(F)(F)F)nc3)sc2-c2ccc(N3CCS(=O)(=O)CC3)cc2)CC1 [Example 98, (1R,2R)-N-(1-cyanocyclopropyl)-2-(5-(4-(1,1-dioxidothiomorpho-lino)phenyl)-2-(2-(trifluoromethyl)pyrimidin-5-yl)thiazol-4-yl)cyclohexane-carboxamide]
3330 nM	1.7 nM	N#CC1(NC(=O)[C@@H]2CCCC[C@H]2c2nc(-c3cnc(C4CC4)c(F)c3)sc2-c2ccc(N3CCS(=O)(=O)CC3)cc2)CC1 [Example 99, (1R,2R)-N-(1-cyanocyclopropyl)-2-(2-(6-cyclopropyl-5-fluoropyridin-3-yl)-5-(4-(1,1-dioxidothiomorpho-lino)phenyl)thiazol-4-yl)cyclohexane-carboxamide]
≥ 10000 nM	48.8 nM	CC1(C)CN(c2nc([C@@H]3CCCC[C@H]3C(=O)NC3(C#N)CC3)c(-c3ccc(N4CCS(=O)(=O)CC4)cc3)s2)CC(C)(C)O1 [Example 101, (1R,2R)-N-(1-cyanocyclopropyl)-2-(5-(4-(1,1-dioxidothiomorpho-lino)phenyl)-2-(2,2,6,6-tetramethylmorpho-lino)thiazol-4-yl)cyclohexane-carboxamide]
1000 nM	2.4 nM	N#CC1(NC(=O)[C@@H]2CCCC[C@H]2c2nc(N3CCC4(CC3)CC4)sc2-c2ccc(N3CCS(=O)(=O)CC3)cc2)CC1 [Example 102, (1R,2R)-N-(1-cyanocyclopropyl)-2-(5-(4-(1,1-dioxidothiomorpho-lino)phenyl)-2-(6-azaspiro[2.5]octan-6-yl)thiazol-4-yl)cyclohexane-carboxamide]
1000 nM	1.2 nM	N#CC1(NC(=O)[C@@H]2CCCC[C@H]2c2nc(N3CCOC(c4ccccc4)C3)sc2-c2ccc(N3CCS(=O)(=O)CC3)cc2)CC1 (stereo partly drawn) [Example 103, (1R,2R)-N-(1-cyanocyclopropyl)-2-(5-(4-(1,1-dioxidothiomorpho-lino)phenyl)-2-(2-phenylmorpholino)thiazol-4-yl)cyclohexane-carboxamide]
≥ 10000 nM	2.9 nM	N#CC1(NC(=O)[C@@H]2CCCC[C@H]2c2nc(N3CCCC(F)(F)C3)sc2-c2ccc(N3CCS(=O)(=O)CC3)cc2)CC1 [Example 106, (1R,2R)-N-(1-cyanocyclopropyl)-2-(2-(3,3-difluoropiperidin-1-yl)-5-(4-(1,1-dioxidothiomorpho-lino)phenyl)thiazol-4-yl)cyclohexane-carboxamide]
1000 nM	3.3 nM	N#CC1(NC(=O)[C@@H]2CCC(F)(F)C[C@H]2c2nc(-c3ccc(F)cn3)sc2-c2ccc(N3CCS(=O)(=O)CC3)cc2)CC1 [Example 107, (1R,2R)-N-(1-cyanocyclopropyl)-2-(5-(4-(1,1-dioxidothiomorpho-lino)phenyl)-2-(5-fluoropyridin-2-yl)thiazol-4-yl)-4,4-difluorocyclohexane-carboxamide]
3330 nM	1.7 nM	N#CC1(NC(=O)[C@@H]2CCCC[C@H]2c2nc(-c3cccc(C4CCOCC4)c3)sc2-c2ccc(N3CCS(=O)(=O)CC3)cc2)CC1 [Example 110, (1R,2R)-N-(1-cyanocyclopropyl)-2-(5-(4-(1,1-dioxidothiomorpho-lino)phenyl)-2-(3-(tetrahydro-2H-pyran-4-yl)phenyl)thiazol-4-yl)cyclohexane-carboxamide]
1000 nM	1.1 nM	COc1ccc(-c2nc([C@@H]3CC[C@H](F)C[C@H]3C(=O)NC3(C#N)CC3)c(-c3ccc(N4CCS(=O)(=O)CC4)cc3)s2)nc1 [Example 114, (1R,2R,5S)-N-(1-cyanocyclopropyl)-2-(5-(4-(1,1-dioxidothiomorpho-lino)phenyl)-2-(5-methoxypyridin-2-yl)thiazol-4-yl)-5-fluorocyclohexane-carboxamide]
2660 nM	2.2 nM	N#CC1(NC(=O)[C@@H]2CCC(F)(F)C[C@H]2c2nc(-c3cncc(Cl)c3)sc2-c2ccc(N3CCS(=O)(=O)CC3)cc2)CC1 [Example 115, (1R,2R)-2-(2-(5-chloropyridin-3-yl)-5-(4-(1,1-dioxidothiomorpho-lino)phenyl)thiazol-4-yl)-N-(1-cyanocyclopropyl)-4,4-difluorocyclohexane-carboxamide]
1000 nM	2.4 nM	N#CC1(NC(=O)[C@@H]2C[C@@H](F)CC[C@H]2c2nc(N3CCOCC3)sc2-c2ccc(N3CCS(=O)(=O)CC3)cc2)CC1 [Example 116, (1R,2R,5S)-N-(1-cyanocyclopropyl)-2-(5-(4-(1,1-dioxidothiomorpho-lino)phenyl)-2-morpholinothiazol-4-yl)-5-fluorocyclohexane-carboxamide]
≥ 10000 nM	8 nM	N#CC1(NC(=O)[C@@H]2CCCC[C@H]2c2nc(N3CC(F)(F)C3)sc2-c2ccc(N3CCS(=O)(=O)CC3)cc2)CC1 [Example 117, (1R,2R)-N-(1-cyanocyclopropyl)-2-(2-(3,3-difluoroazetidin-1-yl)-5-(4-(1,1-dioxidothiomorpho-lino)phenyl)thiazol-4-yl)cyclohexane-carboxamide]
≥ 10000 nM	59.4 nM	N#CC1(NC(=O)[C@@H]2CCCC[C@H]2c2nc(-c3ccnc(C(F)(F)F)n3)sc2-c2ccc(N3CCS(=O)(=O)CC3)cc2)CC1 [Example 118, (1R,2R)-N-(1-cyanocyclopropyl)-2-(5-(4-(1,1-dioxidothiomorpho-lino)phenyl)-2-(2-(trifluoromethyl)pyrimidin-4-yl)thiazol-4-yl)cyclohexane-carboxamide]
1200 nM	1.3 nM	Cc1nccc(-c2nc([C@@H]3CCCC[C@H]3C(=O)NC3(C#N)CC3)c(-c3ccc(N4CCS(=O)(=O)CC4)cc3)s2)n1 [Example 119, (1R,2R)-N-(1-cyanocyclopropyl)-2-(5-(4-(1,1-dioxidothiomorpho-lino)phenyl)-2-(2-methylpyrimidin-4-yl)thiazol-4-yl)cyclohexane-carboxamide]
